Source: patent US11230526B1, “Cylcoalkenyl derivatives useful as agonists of the GPR120 and/or GPR40 receptors” (Janssen Pharmaceutica NV, priority 2018, dated 2022)
“And” between values parts separate entries of the source, which are not always exact repeats. Identical values can stand only once.

How the values were obtained:
Type in all cases: cell-based
human GPR40 = molecular target: T1, human GPR40 (Homo sapiens, UniProt O14842); assay: GPR40 calcium flux assay, human GPR40; conditions: HEK293 cells stably expressing GPR40; table does not say human or rat
T1 construct: expressed in transfected cells
Method in brief: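 Cells preincubated 1 h at 37° C. in HBSS, 20 mM HEPES, 0.1% BSA, then Fluo 8 calcium dye 30 min at 37° C. and 15 min at room temperature.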

Human GPR120 short form [1] = molecular target: T2, Human GPR120 short form (Homo sapiens, UniProt Q5NUL3); assay: Human GPR120 calcium flux assay, Procedure Calcium A (2500 cells/well)
T2 construct: expressed in transfected cells
T2 sequence (Q5NUL3 1-361): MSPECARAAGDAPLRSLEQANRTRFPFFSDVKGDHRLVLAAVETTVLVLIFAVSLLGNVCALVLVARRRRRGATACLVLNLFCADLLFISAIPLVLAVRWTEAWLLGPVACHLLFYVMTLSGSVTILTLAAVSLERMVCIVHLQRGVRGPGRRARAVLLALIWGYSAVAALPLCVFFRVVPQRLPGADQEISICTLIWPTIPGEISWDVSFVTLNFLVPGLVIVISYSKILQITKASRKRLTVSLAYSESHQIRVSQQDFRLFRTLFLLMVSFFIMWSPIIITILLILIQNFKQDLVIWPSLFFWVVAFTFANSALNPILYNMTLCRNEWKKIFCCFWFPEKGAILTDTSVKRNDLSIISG
Method in brief: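 HEK293 cells stably expressing human GPR120 short isoform (NM_001195755.1), 2500 cells/well, serum-starved 1 h at 37 °C and loaded with Fluo-4 NW plus probenecid. FLIPR fluorescence read for 300 s after compound addition; response = Fmax−Fmin. EC50 from four-parameter concentration–response fit.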

Human GPR120 short form [2] = molecular target: T2, Human GPR120 short form; assay: Human GPR120 calcium flux assay, Procedure Calcium B (4200 cells/well)
Method in brief: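 Agonist EC50 came from a four-parameter fit of RFU (Fmax−Fmin) read over 300 s on FLIPR. Cells were HEK293 stably transfected with human GPR120 (NM_001195755.1) at 4200 per well, serum-starved 1 h and loaded with Fluo-4 NW dye with probenecid before ligand addition.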

T1 sequence (O14842 whole entry): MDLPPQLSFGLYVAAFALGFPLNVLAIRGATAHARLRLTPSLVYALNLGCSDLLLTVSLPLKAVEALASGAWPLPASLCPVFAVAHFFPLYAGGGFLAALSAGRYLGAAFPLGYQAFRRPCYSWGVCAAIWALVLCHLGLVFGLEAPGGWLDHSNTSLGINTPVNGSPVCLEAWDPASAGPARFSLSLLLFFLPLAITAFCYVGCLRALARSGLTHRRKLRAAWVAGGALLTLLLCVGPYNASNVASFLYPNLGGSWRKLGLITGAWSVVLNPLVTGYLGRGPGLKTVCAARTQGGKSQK

EC50 (human GPR40)	EC50 (Human GPR120 short form [1])	EC50 (Human GPR120 short form [2])	Structure (SMILES)
> 5000 nM	261 nM	56 nM and 54 nM	Cc1c(CCC(=O)O)ccc(OCC2=C(c3ccc(Cl)cc3)CCC(F)(F)C2)c1C [Compound 468, 3-[4-[[2-(4-chlorophenyl)-5,5-difluoro-cyclohexen-1-yl]methoxy]-2,3-dimethyl-phenyl]Propanoic Acid]
> 5000 nM	400 nM	23 nM	Cc1ccc(C2=C(COc3ccc(CCC(=O)O)c(F)c3F)CCC2)cc1 [Compound 94, 3-(2,3-difluoro-4-((2-(p-tolyl)cyclopent-1-en-1-yl)methoxy)phenyl)Propanoic Acid]
> 5000 nM	331 nM	42 nM	O=C(O)CCc1ccc(OCC2=C(c3ccc(Cl)cc3)CCCC2)c(F)c1F [Compound 513, 3-[4-[[2-(4-chlorophenyl)cyclohexen-1-yl]methoxy]-2,3-difluoro-phenyl]Propanoic Acid]
> 5000 nM	123 nM	37 nM	Cc1ccc(C2=C(COc3c(F)cc(CCC(=O)O)cc3F)CCCC2)cc1F [Compound 493, 3-[3,5-difluoro-4-[[2-(3-fluoro-4-methyl-phenyl)cyclohexen-1-yl]methoxy]phenyl]Propanoic Acid]
> 5000 nM	1050 nM	233 nM	Cc1c(CCC(=O)O)ccc(OCC2=C(c3cccnc3)CCC2)c1C [Compound 108, 3-[2,3-dimethyl-4-[[2-(3-pyridyl)cyclopenten-1-yl]methoxy]phenyl]Propanoic Acid]
> 10000 nM	963 nM	414 nM	Cc1c(CCC(=O)O)ccc(OCC2=C(c3cccc(Cl)c3)CCCC2)c1C [Compound 509, 3-[4-[[2-(3-chlorophenyl)cyclohexen-1-yl]methoxy]-2,3-dimethyl-phenyl]Propanoic Acid]
> 5000 nM	461 nM	233 nM	Cc1c(CCC(=O)O)ccc(OCC2=C(c3cncs3)CCC2)c1C [Compound 88, 3-[2,3-dimethyl-4-[(2-thiazol-5-ylcyclopenten-1-yl)methoxy]phenyl]Propanoic Acid]
> 10000 nM	173 nM	24 nM	Cc1ccc(C2=C(COc3ccc(CCC(=O)O)c(C)c3C)CCC2)cc1 [Compound 52, 3-[2,3-dimethyl-4-[[2-(p-tolyl)cyclopenten-1-yl]methoxy]phenyl]Propanoic Acid]
> 10000 nM	572 nM	35 nM	O=C(O)CCc1ccc(OCC2=C(c3ccc(Cl)cc3)CCCC2)c(F)c1 [Compound 511, 3-[4-[[2-(4-chlorophenyl)cyclohexen-1-yl]methoxy]-3-fluoro-phenyl]Propanoic Acid]
> 5000 nM	760 nM	192 nM	Cc1c(CCC(=O)O)ccc(OCC2=C(c3nccs3)CCC2)c1C [Compound 79, 3-[2,3-dimethyl-4-[(2-thiazol-2-ylcyclopenten-1-yl)methoxy]phenyl]Propanoic Acid]
> 5000 nM	493 nM	97 nM	O=C(O)CCc1ccc(OCC2=C(c3ccc(Cl)cc3)CCC(F)(F)C2)c(F)c1F [Compound 503, 3-[4-[[2-(4-chlorophenyl)-5,5-difluoro-cyclohexen-1-yl]methoxy]-2,3-difluoro-phenyl]Propanoic Acid]
3530 nM	255 nM	52 nM	Cc1cc(CCC(=O)O)ccc1OCC1=C(c2ccc(Cl)cc2)CCCC1 [Compound 483, 3-[4-[[2-(4-chlorophenyl)cyclohexen-1-yl]methoxy]-3-methyl-phenyl]Propanoic Acid]
> 5000 nM	958 nM	73 nM	O=C(O)CCc1c(F)c(F)c(OCC2=C(c3ccc(Cl)cc3)CCCC2)c(F)c1F [Compound 479, 3-[4-[[2-(4-chlorophenyl)cyclohexen-1-yl]methoxy]-2,3,5,6-tetrafluoro-phenyl]Propanoic Acid]
> 10000 nM	546 nM	159 nM	Cc1c(CCC(=O)O)ccc(OCC2=C(c3cccc(Cl)c3)CCC2)c1C [Compound 58, 3-[4-[[2-(3-chlorophenyl)cyclopenten-1-yl]methoxy]-2,3-dimethyl-phenyl]Propanoic Acid]
> 5000 nM	605 nM	234 nM	Cc1ccc(C2=C(COc3ccc(CCC(=O)O)c(C)c3C)CCC2)cn1 [Compound 85, 3-(2,3-dimethyl-4-((2-(6-methylpyridin-3-yl)cyclopent-1-en-1-yl)methoxy)phenyl)Propanoic Acid]
> 5000 nM	136 nM	27 nM	Cc1cc(CCC(=O)O)ccc1OCC1=C(c2ccc(Cl)cc2)CCC1 [Compound 62, 3-[4-[[2-(4-chlorophenyl)cyclopenten-1-yl]methoxy]-3-methyl-phenyl]Propanoic Acid]
> 5000 nM	344 nM	23 nM	O=C(O)CCc1ccc(OCC2=C(c3ccc(Cl)cc3)CCC2)c(F)c1F [Compound 70, 3-[4-[[2-(4-chlorophenyl)cyclopenten-1-yl]methoxy]-2,3-difluoro-phenyl]Propanoic Acid]
> 5000 nM	658 nM	245 nM	Cc1ccc(C2=C(COc3ccc(CCC(=O)O)c(F)c3F)CCC2)c(C)c1 [Compound 72, 3-(4-((2-(2,4-dimethylphenyl)cyclopent-1-en-1-yl)methoxy)-2,3-difluorophenyl)Propanoic Acid]
> 5000 nM	550 nM	103 nM	O=C(O)CCc1cc(F)c(OCC2=C(c3ccc(Cl)cc3)CCC2)c(F)c1 [Compound 60, 3-[4-[[2-(4-chlorophenyl)cyclopenten-1-yl]methoxy]-3,5-difluoro-phenyl]Propanoic Acid]
> 5000 nM	256 nM	58 nM	CCc1ccc(C2=C(COc3ccc(CCC(=O)O)c(C)c3C)CCC2)cc1 [Compound 27, 3-(4-((2-(4-ethylphenyl)cyclopent-1-en-1-yl)methoxy)-2,3-dimethylphenyl)Propanoic Acid]
> 5000 nM	1740 nM	290 nM	Cc1ccc(C2=C(COc3c(F)cc(CCC(=O)O)cc3F)CCC2)cc1C [Compound 84, 3-(4-((2-(3,4-dimethylphenyl)cyclopent-1-en-1-yl)methoxy)-3,5-difluorophenyl)Propanoic Acid]
> 5000 nM	301 nM	114 nM	Cc1c(CCC(=O)O)ccc(OCC2=C(c3ccccc3)CCC2)c1C [Compound 23, 3-(2,3-dimethyl-4-((2-phenylcyclopent-1-en-1-yl)methoxy)phenyl)Propanoic Acid]
> 10000 nM	542 nM	136 nM	Cc1c(CCC(=O)O)ccc(OCC2=C(c3ccccc3Cl)CCC2)c1C [Compound 76, 3-[4-[[2-(2-chlorophenyl)cyclopenten-1-yl]methoxy]-2,3-dimethyl-phenyl]Propanoic Acid]
> 5000 nM	428 nM	79 nM	Cc1c(CCC(=O)O)ccc(OCC2=C(c3ccc(Cl)cc3)CCCC2)c1C [Compound 474, 3-[4-[[2-(4-chlorophenyl)cyclohexen-1-yl]methoxy]-2,3-dimethyl-phenyl]Propanoic Acid]
> 5000 nM	406 nM	32 nM	Cc1c(CCC(=O)O)ccc(OCC2=C(c3ccccc3)CCCC2)c1C [Compound 472, 3-[2,3-dimethyl-4-[(2-phenylcyclohexen-1-yl)methoxy]phenyl]Propanoic Acid]
> 5000 nM	658 nM	205 nM	Cc1c(CCC(=O)O)ccc(OCC2=C(c3ccc(Cl)c(Cl)c3)CCC2)c1C [Compound 66, 3-[4-[[2-(3,4-dichlorophenyl)cyclopenten-1-yl]methoxy]-2,3-dimethyl-phenyl]Propanoic Acid]
> 10000 nM	561 nM	33 nM	O=C(O)CCc1cc(F)c(OCC2=C(c3ccc(Cl)cc3)CCCC2)c(F)c1 [Compound 510, 3-[4-[[2-(4-chlorophenyl)cyclohexen-1-yl]methoxy]-3,5-difluoro-phenyl]Propanoic Acid]
> 5000 nM	1010 nM	336 nM	Cc1c(CCC(=O)O)ccc(OCC2=C(c3ccccn3)CCC2)c1C [Compound 147, 3-[2,3-dimethyl-4-[[2-(2-pyridyl)cyclopenten-1-yl]methoxy]phenyl]Propanoic Acid]
> 5000 nM	44 nM	26 nM	Cc1cc(CCC(=O)O)ccc1OCC1=C(c2ccc(Cl)c(F)c2)CCC1 [Compound 159, 3-(4-((2-(4-chloro-3-fluorophenyl)cyclopent-1-en-1-yl)methoxy)-3-methylphenyl)Propanoic Acid]
> 5000 nM	1090 nM	409 nM	Cc1ccccc1C1=C(COc2ccc(CCC(=O)O)c(C)c2C)CCC1 [Compound 132, 3-[2,3-dimethyl-4-[[2-(o-tolyl)cyclopenten-1-yl]methoxy]phenyl]Propanoic Acid]
